Assay results as given in US20260262643A1, “HERBICIDAL BENZOXAZINES” (FMC CORPORATION, priority 2022, published 2026).

Experiments:
corn [1] = test: Test C preemergence; format: in vivo, Zea mays; details: for Plant response rating, Corn: Preemergence; for Corn plant response rating: preemergence
Outline: (§1)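 Seeds sown in loam soil–sand blend received a directed preemergence soil spray of test chemical in non-phytotoxic solvent with surfactant; postemergence plants (2–10 cm, one- to two-leaf stage) were sprayed with the same formulation. Greenhouse-held 10 days, then visually rated for injury versus untreated controls, 0 (no effect) to 100 (complete control).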

barnyardgrass [2] = test: Test C preemergence; format: in vivo, Echinochloa crusgalli; details: for Plant response rating, Barnyardgrass: Preemergence; for Barnyardgrass plant response rating: preemergence
Outline: as §1

ryegrass, Italian [3] = test: Test C postemergence; format: in vivo, Lolium multiflorum; details: 10 days
Outline: as §1

wheat [4] = test: Test C postemergence; format: in vivo, Triticum aestivum; details: 10 days
Outline: as §1

oat, wild [5] = test: Test C preemergence; format: in vivo, Avena fatua; details: for Plant response rating, Oat, Wild: Preemergence; for Oat, Wild plant response rating: preemergence
Outline: as §1

pigweed, palmer [6] = test: Test C postemergence; format: in vivo, Amaranthus palmeri; details: 10 days
Outline: as §1

blackgrass [7] = test: Test C postemergence; format: in vivo, Alopecurus myosuroides; details: 10 days
Outline: as §1

corn [8] = test: Test C postemergence; format: in vivo, Zea mays; details: 10 days
Outline: as §1

barnyardgrass [9] = test: Test C postemergence; format: in vivo, Echinochloa crusgalli; details: 10 days
Outline: as §1

kochia [10] = test: Test C preemergence; format: in vivo, Bassia scoparia; details: for Plant response rating, Kochia: Preemergence
Outline: as §1

kochia [11] = test: Test C postemergence; format: in vivo, Bassia scoparia; details: 10 days
Outline: as §1

ragweed [12] = test: Test C postemergence; format: in vivo, Ambrosia artemisiifolia; details: 10 days
Outline: as §1

ducksalad = test: Test D flooded paddy test; format: in vivo, Heteranthera limosa; details: 250 g ai/ha, applied to paddy water, visual rating after 13 to 14 days, scale 0 to 100 (0 no effect, 100 complete control)
Outline: (§2)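 Plants at the 2-leaf stage were grown in pots flooded to 3 cm, and compound was applied directly into the paddy water, with depth kept throughout. After 13–14 days in a greenhouse, injury was rated visually against untreated controls on a 0–100 scale (100 = complete control); a dash means not tested.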

rice = test: Test D flooded paddy test; format: in vivo, Oryza sativa; details: 250 g ai/ha, applied to paddy water, visual rating after 13 to 14 days, scale 0 to 100 (0 no effect, 100 complete control)
Outline: as §2

pigweed, palmer [13] = test: Test C preemergence; format: in vivo, Amaranthus palmeri; details: for Plant response rating, Pigweed, Palmer: Preemergence; for Pigweed, Palmer plant response rating: preemergence
Outline: as §1

green foxtail [14] = test: Test C postemergence; format: in vivo, Setaria viridis; details: 10 days
Outline: as §1

galium = test: Test C postemergence; format: in vivo, Galium aparine; details: 10 days
Outline: as §1

ryegrass, Italian [15] = test: Test C preemergence; format: in vivo, Lolium multiflorum; details: for Plant response rating, Ryegrass, Italian: Preemergence; for Ryegrass, Italian plant response rating: preemergence
Outline: as §1

green foxtail [16] = test: Test C preemergence; format: in vivo, Setaria viridis; details: for Plant response rating, Foxtail, Green: Preemergence; for Foxtail, Green plant response rating: preemergence
Outline: as §1

sedge, umbrella = test: Test D flooded paddy test; format: in vivo, Cyperus difformis; details: 250 g ai/ha, applied to paddy water, visual rating after 13 to 14 days, scale 0 to 100 (0 no effect, 100 complete control)
Outline: as §2

barnyardgrass [17] = test: Test D flooded paddy test; format: in vivo, Echinochloa crus-galli; details: 250 g ai/ha, applied to paddy water, visual rating after 13 to 14 days, scale 0 to 100 (0 no effect, 100 complete control)
Outline: as §2

soybean [18] = test: Test C postemergence; format: in vivo, Glycine max; details: 10 days
Outline: as §1

blackgrass [19] = test: Test C preemergence; format: in vivo, Alopecurus myosuroides; details: for Plant response rating, Blackgrass: Preemergence; for Blackgrass plant response rating: preemergence
Outline: as §1

oat, wild [20] = test: Test C postemergence; format: in vivo, Avena fatua; details: 10 days
Outline: as §1

ragweed [21] = test: Test C preemergence; format: in vivo, Ambrosia artemisiifolia; details: for Plant response rating, Ragweed: Preemergence; for Ragweed plant response rating: preemergence
Outline: as §1

soybean [22] = test: Test C preemergence; format: in vivo, Glycine max; details: for Plant response rating, Soybean: Preemergence; for Soybean plant response rating: preemergence
Outline: as §1

wheat [23] = test: Test C preemergence; format: in vivo, Triticum aestivum; details: for Plant response rating, Wheat: Preemergence; for Wheat plant response rating: preemergence
Outline: as §1

horseweed = test: Test C postemergence; format: in vivo, Erigeron canadensis; details: 10 days
Outline: as §1

[24] = 500 g ai/ha, visual rating after 10 days, 0 to 100 scale (0 no effect, 100 complete control)
[25] = Test C, 125 g ai/ha, 0 to 100 scale (0 no effect, 100 complete control)
[26] = 125 g ai/ha, postemergence, 0 to 100 scale, 0 no effect, 100 complete control
[27] = Postemergence, 500 g ai/ha, visual 0 to 100 scale (0 no effect, 100 complete control)
[28] = 500 g ai/ha, 0 to 100 scale (0 no effect, 100 complete control)
[29] = 125 g ai/ha, 0 to 100 scale, 0 no effect, 100 complete control
[30] = Postemergence, 125 g ai/ha, 0 to 100 scale (0 no effect, 100 complete control)
[31] = 500 g ai/ha, postemergence, 0 to 100 scale (0 no effect, 100 complete control)

CC(C)c1ncn(-c2ccc([S+]([O-])C(F)(F)F)c(C(=O)N3C[C@H](C)Oc4c(Cl)cccc43)c2)n1 (some centres unmarked) [Compound 191]
Plant response rating, Corn (corn [1]; [24]): 0
Corn plant response rating (corn [1]; [25]): 0
Plant response rating, Barnyardgrass (barnyardgrass [2]; [24]): 0
Barnyardgrass plant response rating (barnyardgrass [2]; [25]): 0
Plant response rating, Ryegrass, Italian (ryegrass, Italian [3]; [26]): 0
Plant response rating, Ryegrass, Italian (ryegrass, Italian [3]; [27]): 0
Plant response rating, Wheat (wheat [4]; [26]): 10
Plant response rating, Wheat (wheat [4]; [27]): 10
Plant response rating, Oat, Wild (oat, wild [5]; [24]): 0
Oat, Wild plant response rating (oat, wild [5]; [25]): 0
Plant response rating, Pigweed, Palmer (pigweed, palmer [6]; [26]): 0
Plant response rating, Pigweed, Palmer (pigweed, palmer [6]; [27]): 30
Plant response rating, Blackgrass (blackgrass [7]; [26]): 0
Plant response rating, Blackgrass (blackgrass [7]; [27]): 0
Plant response rating, Corn (corn [8]; [26]): 0
Plant response rating, Corn (corn [8]; [27]): 0
Plant response rating, Barnyardgrass (barnyardgrass [9]; [26]): 10
Plant response rating, Barnyardgrass (barnyardgrass [9]; [27]): 10
Plant response rating, Kochia (kochia [10]; [24]): 0
Plant response rating, Kochia (kochia [11]; [26]): 20
Plant response rating, Kochia (kochia [11]; [27]): 20
Plant response rating, Ragweed (ragweed [12]; [26]): 0
Plant response rating, Ragweed (ragweed [12]; [27]): 0
Plant response rating, Ducksalad (Flood) (ducksalad): 0
Plant response rating, Rice (Flood) (rice): 0
Plant response rating, Pigweed, Palmer (pigweed, palmer [13]; [24]): 0
Pigweed, Palmer plant response rating (pigweed, palmer [13]; [25]): 0
Plant response rating, Foxtail, Green (green foxtail [14]; [26]): 0
Plant response rating, Foxtail, Green (green foxtail [14]; [27]): 0
Plant response rating, Galium (galium; [26]): 0
Plant response rating, Galium (galium; [27]): 50
Plant response rating, Ryegrass, Italian (ryegrass, Italian [15]; [24]): 20
Ryegrass, Italian plant response rating (ryegrass, Italian [15]; [25]): 0
Plant response rating, Foxtail, Green (green foxtail [16]; [24]): 0
Foxtail, Green plant response rating (green foxtail [16]; [25]): 0
Plant response rating, Sedge, Umbrella (Flood) (sedge, umbrella): 0
Plant response rating, Barnyardgrass (Flood) (barnyardgrass [17]): 0
Plant response rating, Soybean (soybean [18]; [26]): 40
Plant response rating, Soybean (soybean [18]; [27]): 90
Plant response rating, Blackgrass (blackgrass [19]; [24]): 20
Blackgrass plant response rating (blackgrass [19]; [25]): 0
Plant response rating, Oat, Wild (oat, wild [20]; [26]): 0
Plant response rating, Oat, Wild (oat, wild [20]; [27]): 0
Plant response rating, Ragweed (ragweed [21]; [24]): 0
Ragweed plant response rating (ragweed [21]; [25]): 0
Plant response rating, Soybean (soybean [22]; [24]): 0
Soybean plant response rating (soybean [22]; [25]): 0
Plant response rating, Wheat (wheat [23]; [24]): 0
Wheat plant response rating (wheat [23]; [25]): 0
Plant response rating, Horseweed (horseweed; [26]): 0
Plant response rating, Horseweed (horseweed; [27]): 0

COC[C@H]1CN(C(=O)c2cc(-n3cnc(C(C)(C)O)n3)ccc2OC)c2cccc(Cl)c2O1 [Compound 408]
Corn plant response rating (corn [1]; [28]): 60
Plant response rating, Corn (corn [1]; [29]): 0
Barnyardgrass plant response rating (barnyardgrass [2]; [28]): 100
Plant response rating, Barnyardgrass (barnyardgrass [2]; [29]): 60
Plant response rating, Ryegrass, Italian (ryegrass, Italian [3]; [30]): 70
Plant response rating, Wheat (wheat [4]; [30]): 30
Oat, Wild plant response rating (oat, wild [5]; [28]): 60
Plant response rating, Oat, Wild (oat, wild [5]; [29]): 30
Plant response rating, Pigweed, Palmer (pigweed, palmer [6]; [31]): 80
Plant response rating, Pigweed, Palmer (pigweed, palmer [6]; [30]): 80
Plant response rating, Blackgrass (blackgrass [7]; [31]): 70
Plant response rating, Blackgrass (blackgrass [7]; [30]): 0
Plant response rating, Corn (corn [8]; [31]): 80
Plant response rating, Corn (corn [8]; [30]): 10
Plant response rating, Barnyardgrass (barnyardgrass [9]; [31]): 60
Plant response rating, Barnyardgrass (barnyardgrass [9]; [30]): 10
Kochia plant response rating (kochia [10]; 500 g ai/ha, preemergence, 0 to 100 scale (0 no effect, 100 complete control)): 100
Plant response rating, Kochia (kochia [10]; [29]): 70
Plant response rating, Kochia (kochia [11]; [31]): 90
Plant response rating, Kochia (kochia [11]; [30]): 70
Plant response rating, Ragweed (ragweed [12]; [30]): 50
Plant response rating, Ducksalad (Flood) (ducksalad): 90
Plant response rating, Rice (Flood) (rice): 15
Pigweed, Palmer plant response rating (pigweed, palmer [13]; [28]): 100
Plant response rating, Pigweed, Palmer (pigweed, palmer [13]; [29]): 100
Plant response rating, Foxtail, Green (green foxtail [14]; [31]): 60
Plant response rating, Foxtail, Green (green foxtail [14]; [30]): 20
Plant response rating, Galium (galium; [30]): 100
Ryegrass, Italian plant response rating (ryegrass, Italian [15]; [28]): 80
Plant response rating, Ryegrass, Italian (ryegrass, Italian [15]; [29]): 60
Foxtail, Green plant response rating (green foxtail [16]; [28]): 100
Plant response rating, Foxtail, Green (green foxtail [16]; [29]): 100
Plant response rating, Sedge, Umbrella (Flood) (sedge, umbrella): 98
Plant response rating, Barnyardgrass (Flood) (barnyardgrass [17]): 10
Plant response rating, Soybean (soybean [18]; [30]): 100
Blackgrass plant response rating (blackgrass [19]; [28]): 80
Plant response rating, Blackgrass (blackgrass [19]; [29]): 10
Plant response rating, Oat, Wild (oat, wild [20]; [31]): 90
Plant response rating, Oat, Wild (oat, wild [20]; [30]): 30
Ragweed plant response rating (ragweed [21]; [28]): 90
Plant response rating, Ragweed (ragweed [21]; [29]): 60
Soybean plant response rating (soybean [22]; [28]): 100
Plant response rating, Soybean (soybean [22]; [29]): 80
Wheat plant response rating (wheat [23]; [28]): 60
Plant response rating, Wheat (wheat [23]; [29]): 20
Plant response rating, Horseweed (horseweed; [31]): 60
Plant response rating, Horseweed (horseweed; [30]): 0
